Read-outs that look alike come from different tables or passages of the source.
Tests used:
[1] = tested on: BZR (benzodiazepine site of GABAAR); test: GABAAR/BZR binding, rat brain homogenate with 3H-flunitrazepam; conditions: rat brain homogenate, 3H-flunitrazepam; for BZR %: Percent inhibition at 10,000 nM
Method: (§1) Ligand affinities were determined for KOR (κ opioid receptor), DOR (δ opioid receptor), and MOR (μ opioid receptor) using radioligand binding assays at a screening concentration of 10,000 nM. For these assays, cell homogenates from HEK293 cells that overexpressed KOR, MOR, and DOR were used in combination with [^3H]-U69593, [^3H]-DAMGO, and [^3H]-DADLE, respectively Compounds that exceeded more than 50% radioligand displacement were investigated further in concentration-dependent experiments to determine Ki values. Gamma aminobutyric acid type A receptor (GABAAR) binding was determined with rat brain homogenate and ^3H-flunitrazepam. Flunitrazepam binds GABAAR subtypes that consists of two α and two β subunits and one γ or δ subunit. Strong affinities to α1-3,5,6β1-3γ1-y/δ GABAARS have been reported for flunitrazepam. The […] GABAAR subtype expression in the brain includes 43% α1β2γ2, 15% α2β3γ2+8% α2βγ1, 10% α3β3γ2, 6% α4βγ/δ, 4% α5β3γ2, and 4% α6β2γ2/δ. Therefore, compounds with high affinity toward the synaptic benzodiazepine-sensitive receptors (BZR) predominately bind α1-3β2-3γ1-2 GABAARs. Alternatively, compounds with weak BZR binding might be selective for α4-6βγ/δ GABAARs.
(§2) Psychoactive Drug Screening Program. Detailed protocols for the primary and secondary radioligand binding assays can be found in the National Institute of Mental Health's Psychoactive Drug Screening Program (NIMH PDSP) Assay Protocol Book. Briefly, primary and secondary radioligand binding assays are carried out in a final of volume of 125 μL per well in appropriate binding buffer. The radioactive ligand concentration is close to the Kd. Total binding and nonspecific binding are determined in the absence and presence of 10 μM of appropriate reference compound, respectively. In brief, plates are usually incubated at room temperature and in the dark for 90 min. Reactions are stopped by vacuum filtration onto 0.3% polyethyleneimine (PEI) soaked 96-well filter mats using a 96-well Filtermate harvester, followed by three washes with cold PBS buffer. Scintillation cocktail is then melted onto the microwave-dried filters on a hot plate and radioactivity counted in a Microbeta counter. The data (n=6) were analyzed by nonlinear regression.

[2] = target: T1, DOR (δ opioid receptor) (Homo sapiens, UniProt P41143); test: DOR radioligand binding ([3H]-DADLE, HEK293 cell homogenates); conditions: Percent inhibition at 10,000 nM; [3H]-DADLE
T1 construct: expressed in transfected cells; host or cells: HEK293
T1 sequence (P41143 whole entry): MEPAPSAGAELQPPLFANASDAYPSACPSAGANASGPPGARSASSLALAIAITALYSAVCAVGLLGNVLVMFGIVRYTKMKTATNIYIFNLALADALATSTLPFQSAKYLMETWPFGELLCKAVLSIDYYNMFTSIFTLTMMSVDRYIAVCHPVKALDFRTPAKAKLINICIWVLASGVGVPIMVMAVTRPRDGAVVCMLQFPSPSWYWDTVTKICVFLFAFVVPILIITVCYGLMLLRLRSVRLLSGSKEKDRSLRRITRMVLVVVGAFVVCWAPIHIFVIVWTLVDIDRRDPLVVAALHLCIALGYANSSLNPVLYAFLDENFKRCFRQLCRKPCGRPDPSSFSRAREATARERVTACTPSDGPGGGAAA
Method: as §2, with “Radioligand binding assays.” for “Psychoactive Drug Screening Program.”, “Book (Roth, 2018).” for “Book.”, “The radioactive ligand concentration is close to the Kd.” left out, “compound (Naltrindole DOR, Salvinorin A KOR and DAMGO MOR).” for “compound, respectively.”
as §1, §2

[3] = target: T2, MOR (μ opioid receptor) (Homo sapiens, UniProt P35372); test: MOR radioligand binding ([3H]-DAMGO, HEK293 cell homogenates); conditions: Percent inhibition at 10,000 nM; [3H]-DAMGO
T2 construct: expressed in transfected cells; host or cells: HEK293
T2 sequence (P35372 whole entry, species assumed): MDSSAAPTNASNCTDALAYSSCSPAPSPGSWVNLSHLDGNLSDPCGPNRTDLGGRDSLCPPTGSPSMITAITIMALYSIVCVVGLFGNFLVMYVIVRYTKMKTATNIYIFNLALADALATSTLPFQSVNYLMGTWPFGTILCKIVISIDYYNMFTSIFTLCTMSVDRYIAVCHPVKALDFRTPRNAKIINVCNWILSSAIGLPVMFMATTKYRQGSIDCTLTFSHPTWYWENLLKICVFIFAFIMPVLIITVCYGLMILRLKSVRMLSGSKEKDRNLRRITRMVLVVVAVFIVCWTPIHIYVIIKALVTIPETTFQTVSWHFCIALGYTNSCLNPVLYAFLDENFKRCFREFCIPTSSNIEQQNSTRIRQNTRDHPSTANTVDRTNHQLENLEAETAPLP
Method: as §2, with “Radioligand binding assays.” for “Psychoactive Drug Screening Program.”, “Book (Roth, 2018).” for “Book.”, “The radioactive ligand concentration is close to the Kd.” left out, “compound (Naltrindole DOR, Salvinorin A KOR and DAMGO MOR).” for “compound, respectively.”
as §1, §2

[4] = target: T3, KOR (κ opioid receptor) (Homo sapiens, UniProt P41145); test: KOR radioligand binding ([3H]-U69593, HEK293 cell homogenates)
T3 construct: expressed in transfected cells; host or cells: HEK293 (stably transfected)
T3 sequence (P41145 whole entry): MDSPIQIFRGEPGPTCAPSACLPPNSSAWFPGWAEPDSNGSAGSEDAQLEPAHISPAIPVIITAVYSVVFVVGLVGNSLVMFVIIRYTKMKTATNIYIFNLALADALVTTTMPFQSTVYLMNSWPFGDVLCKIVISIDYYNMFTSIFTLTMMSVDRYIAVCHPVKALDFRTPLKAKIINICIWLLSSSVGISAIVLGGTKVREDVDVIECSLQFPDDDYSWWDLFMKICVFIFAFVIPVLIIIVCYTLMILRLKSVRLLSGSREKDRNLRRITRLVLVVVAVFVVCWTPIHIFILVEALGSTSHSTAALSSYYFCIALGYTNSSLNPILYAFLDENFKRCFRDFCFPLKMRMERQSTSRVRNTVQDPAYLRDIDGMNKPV
Method: as §2, with “Radioligand binding assays.” for “Psychoactive Drug Screening Program.”, “Book (Roth, 2018).” for “Book.”, “The radioactive ligand concentration is close to the Kd.” left out, “compound (Naltrindole DOR, Salvinorin A KOR and DAMGO MOR).” for “compound, respectively.”
as §1, §2

[5] = Percent inhibition at 10,000 nM, [3H]-U69593
[6] = concentration-dependent, [3H]-U69593, read-out: KOR (Ki)

| SMILES | BZR % [1] | Ki [1] | inhibition at 10 µM [2] | inhibition at 10 µM [3] | inhibition at 10 µM [4, 5] | Ki [4, 6] | Ki [4] | DOR % [2] | MOR % [3] | KOR % [4, 5] |
| --- | --- | --- | --- | --- | --- | --- | --- | --- | --- | --- |
| C#Cc1ccc2c(c1)C(c1ccccc1F)=N[C@@H](C)c1c(C(N)=O)ncn1-2 [MP-III-018.B] | 97% | 17 nM | 10% | 2% | 51% | 2780 nM |  |  |  |  |
| C#Cc1ccc2c(c1)C(c1ccccc1F)=N[C@@H](C)c1c(C(=O)OCCC)ncn1-2 [GL-I-32] | 98% | 148 nM | 14% | 9% | 95% | 64 nM |  |  |  |  |
| C#Cc1ccc2c(c1)C(c1ccccn1)=N[C@H](C)c1c(C(=O)NC)ncn1-2 [GL-II-31] | 72% | 1700 nM | 3% | 17% | 23% |  |  |  |  |  |
| C#Cc1ccc2c(c1)C(c1ccccc1F)=N[C@@H](C)c1c(C(=O)OCC(F)(F)F)ncn1-2 [GL-I-36] | 77% | 418 nM | 0% | 8% | 85% | 411 nM |  |  |  |  |
| C#Cc1ccc2c(c1)C(c1ccccn1)=N[C@H](C)c1c(C(=O)O)ncn1-2 [GL-II-30] | 65% | 431 nM | 4% | 20% | 0% |  |  |  |  |  |
| C#Cc1ccc2c(c1)C(c1ccccc1F)=NCc1c(-c3ocnc3C)ncn1-2 [KRM-III-65] | 96% | 45 nM | 16% | 0% | 64% | 879 nM |  |  |  |  |
| Fc1ccccc1C1=NCc2c(-c3cnco3)ncn2-c2ccc(Br)cc21 [SH-I-85] | 99% | 11 nM | 33% | 16% | 91% | 162 nM |  |  |  |  |
| CCOC(=O)c1ncn2c1[C@H](C)N=C(c1ccccc1F)c1cc(C3CC3)ccc1-2 [GL-I-78] | 76% | 352 nM | 41% | 32% | 96% |  | 48 nM |  |  |  |
| Cc1ncoc1-c1ncn2c1CN=C(c1ccccc1)c1cc(Br)ccc1-2 [KRM-III-66] | 86% | 49 nM | 11% | 12% | 67% | 756 nM |  |  |  |  |
| C#Cc1ccc2c(c1)C(c1ccccc1F)=N[C@@H](C)c1c(C(=O)NC3CC3)ncn1-2 [GL-I-55] | 95% | 20 nM | 24% | 17% | 93% | 150 nM |  |  |  |  |
| C#Cc1ccc2c(c1)C(c1ccccn1)=NCc1c(-c3nc(C)no3)ncn1-2 [MP-III-085] | 82% | 357 nM | 0% | 0% | 40% |  |  |  |  |  |
| C#Cc1ccc2c(c1)C(c1ccccc1F)=N[C@@H](C)c1c(C(=O)N(C)C)ncn1-2 [GL-I-54] | 94% | 90 nM | 11% | 18% | 78% | 788 nM |  |  |  |  |
| Cc1ncoc1-c1ncn2c1CN=C(c1ccccc1F)c1cc(Br)ccc1-2 [KRM-III-59] | 96% | 20 nM |  |  |  | 408 nM |  | 11% | 0% | 73% |
| C#Cc1ccc2c(c1)C(c1ccccc1F)=N[C@H](C)c1c(C(=O)O)ncn1-2 [SH-053-2'F-R-CH3-Acid] | 93% | 37 nM | 0% | 0% | 16% |  |  |  |  |  |
| Brc1ccc2c(c1)C(c1ccccn1)=NCc1c(-c3cnco3)ncn1-2 [KRM-II-97] | 93% | 140 nM | 8% | 18% | 62% | 1960 nM |  |  |  |  |
| COC(=O)c1ncn2c1[C@@H](C)N=C(c1ccccc1F)c1cc(Br)ccc1-2 [MP-III-058] | 86% | 290 nM | 4% | 0% | 84% |  |  |  |  |  |

Reference: US20240279232A1, “USE OF SUBSTITUTED 5-(4-METHYL-6-PHENYL-4H-BENZO[F]IMIDAZO[1,5-A][1,4] DIAZEPIN-3-YL)-1,2,4-O[…] THE TREATMENT OF INFLAMMATORY CONDITIONS” (priority 2021, published 2024)
